This note sets out measurements from paper PMC5298231, “The Malaria Parasite's Lactate Transporter PfFNT Is the Target of Antiplasmodial Compounds Identified in Whole Cell Phenotypic Screens” (PLoS Pathogens, 2017).

Structures are written as SMILES. Read-outs that look alike come from different tables or passages of the source. Peptide text beside a SMILES is read from it.

The experiment relates to erythrocytes infected with 3D7 trophozoites. It is filed as cell-based, Plasmodium falciparum.

Turning to `O=C(O)CCC(=O)O` [Succinate], the “Log2 Exp1_1hr” value was determined as 0.7494, the “Log2 Exp1_3hr” value is -0.1278, the “Log2 Exp1_6hr” value was -0.06195 and the “Log2 Exp2_1hr” value was determined as 0.5818. For the same compound, the “Log2 Exp2_3hr” value is on record as -0.0254, the “Log2 Exp2_6hr” value came out at 0.5995, the “Log2 Exp3_1hr” value is given as 0.1613 and the “Log2 Exp3_3hr” value is -0.5854. Further, the “Log2 Exp3_6hr” value was found to be 0.007182; the “Ratio of metabolite abundance, Exp1_1hr” value amounted to 1.681; the “Ratio of metabolite abundance, Exp1_3hr” value amounted to 0.9152; the “Ratio of metabolite abundance, Exp1_6hr” value was determined as 0.958. The “Ratio of metabolite abundance, Exp2_1hr” value was 1.497; the “Ratio of metabolite abundance, Exp2_3hr” value is given as 0.9825; the “Ratio of metabolite abundance, Exp2_6hr” value turned out to be 1.515; the “Ratio of metabolite abundance, Exp3_1hr” value was 1.118. Further, the “Ratio of metabolite abundance, Exp3_3hr” value turned out to be 0.6665 and the “Ratio of metabolite abundance, Exp3_6hr” value is given as 1.005.

On to `CC(C)[C@H](NC(=O)[C@H](CC(N)=O)NC(=O)[C@@H](N)[C@@H](C)O)C(=O)N[C@@H](CCCCN)C(=O)O` [TNVK] (H-TNVK-OH), for which the “Ratio of metabolite abundance, Exp1_1hr” value (sheet Ratio, Exp1, 1hr) was determined as 0.4459. In addition, the “Ratio of metabolite abundance, Exp1_3hr” value (sheet Ratio, Exp1, 3hr) is given as 0.2171. In addition, the “Ratio of metabolite abundance, Exp1_6hr” value (sheet Ratio, Exp1, 6hr) stood at 0.7349. In addition, where the note is “sheet Ratio, Exp2, 1hr”, the “Ratio of metabolite abundance, Exp2_1hr” value was determined as 0.5855. Also, the “Ratio of metabolite abundance, Exp2_3hr” value (sheet Ratio, Exp2, 3hr) was 0.3584. Moreover, the “Ratio of metabolite abundance, Exp2_6hr” value (sheet Ratio, Exp2, 6hr) is recorded as 0.8812. The “Ratio of metabolite abundance, Exp3_1hr” value (sheet Ratio, Exp3, 1hr) was found to be 0.5059. For the setting “sheet Ratio, Exp3, 3hr”, the “Ratio of metabolite abundance, Exp3_3hr” value is reported as 0.3409. Moreover, under “sheet Ratio, Exp3, 6hr”, the “Ratio of metabolite abundance, Exp3_6hr” value amounted to 1.2.

Consider `CC(=O)N[C@H]1[C@@H](OP(=O)(O)OP(=O)(O)OC[C@H]2O[C@@H](n3ccc(=O)[nH]c3=O)[C@H](O)[C@@H]2O)O[C@H](CO)[C@@H](O)[C@@H]1O` [UDP-N-acetyl-D-glucosamine], for which the “Ratio of metabolite abundance, Exp1_1hr” value (sheet Ratio, Exp1, 1hr) turned out to be 1.076. Further, the “Ratio of metabolite abundance, Exp1_3hr” value (sheet Ratio, Exp1, 3hr) was found to be 0.9078. The “Ratio of metabolite abundance, Exp1_6hr” value (sheet Ratio, Exp1, 6hr) was found to be 0.813. Besides, the “Ratio of metabolite abundance, Exp2_1hr” value (sheet Ratio, Exp2, 1hr) is on record as 0.9909. Further, the “Ratio of metabolite abundance, Exp2_3hr” value (sheet Ratio, Exp2, 3hr) turned out to be 1.08. Also, the “Ratio of metabolite abundance, Exp2_6hr” value (sheet Ratio, Exp2, 6hr) turned out to be 0.8625. Also, the “Ratio of metabolite abundance, Exp3_1hr” value (sheet Ratio, Exp3, 1hr) is 1.118. For the same compound, under “sheet Ratio, Exp3, 3hr”, the “Ratio of metabolite abundance, Exp3_3hr” value stood at 1.138. Under “sheet Ratio, Exp3, 6hr”, the “Ratio of metabolite abundance, Exp3_6hr” value is reported as 0.9727.

For the compound `O=c1ccn([C@@H]2O[C@H](COP(=O)(O)OP(=O)(O)O)[C@@H](O)[C@H]2O)c(=O)[nH]1` [UDP], under “sheet Ratio, Exp1, 1hr”, the “Ratio of metabolite abundance, Exp1_1hr” value is recorded as 0.7834. The “Ratio of metabolite abundance, Exp1_3hr” value (sheet Ratio, Exp1, 3hr) stood at 0.4305. Further, the “Ratio of metabolite abundance, Exp1_6hr” value (sheet Ratio, Exp1, 6hr) was 0.5124. In addition, the “Ratio of metabolite abundance, Exp2_1hr” value (sheet Ratio, Exp2, 1hr) came to 1.213. The “Ratio of metabolite abundance, Exp2_3hr” value (sheet Ratio, Exp2, 3hr) is 0.7051. The “Ratio of metabolite abundance, Exp2_6hr” value (sheet Ratio, Exp2, 6hr) is listed as 0.7343. The “Ratio of metabolite abundance, Exp3_1hr” value (sheet Ratio, Exp3, 1hr) was determined as 0.7602. Moreover, the “Ratio of metabolite abundance, Exp3_3hr” value (sheet Ratio, Exp3, 3hr) is 0.7434. In addition, the “Ratio of metabolite abundance, Exp3_6hr” value (sheet Ratio, Exp3, 6hr) was 0.9366.

As to `O=c1ccn([C@@H]2O[C@H](COP(=O)(O)O)[C@@H](O)[C@H]2O)c(=O)[nH]1` [UMP], the “Ratio of metabolite abundance, Exp1_1hr” value (sheet Ratio, Exp1, 1hr) worked out at 0.9634. For the setting “sheet Ratio, Exp1, 3hr”, the “Ratio of metabolite abundance, Exp1_3hr” value is recorded as 0.9303. For the same compound, under “sheet Ratio, Exp1, 6hr”, the “Ratio of metabolite abundance, Exp1_6hr” value stood at 0.812. In addition, the “Ratio of metabolite abundance, Exp2_1hr” value (sheet Ratio, Exp2, 1hr) is on record as 0.4945. Besides, the “Ratio of metabolite abundance, Exp2_3hr” value (sheet Ratio, Exp2, 3hr) was found to be 0.6514. In addition, the “Ratio of metabolite abundance, Exp2_6hr” value (sheet Ratio, Exp2, 6hr) was determined as 1.0366. Also, the “Ratio of metabolite abundance, Exp3_1hr” value (sheet Ratio, Exp3, 1hr) was 0.9925. The “Ratio of metabolite abundance, Exp3_3hr” value (sheet Ratio, Exp3, 3hr) came to 0.9562. Moreover, the “Ratio of metabolite abundance, Exp3_6hr” value (sheet Ratio, Exp3, 6hr) was found to be 0.9948.
